Data taken from patent US20240336617A1, “Substituted Bimane Compounds and Methods of Use Thereof” (THE TRUSTEES OF THE UNIVERSITY OF PENNSYLVANIA, priority 2023, published 2024).

Experiments:
[1] = target: T1, αS fibrils in HEK cell lysate (Homo sapiens, UniProt P37840); experiment: Selectivity of probes binding with αS fibrils in HEK cell lysate; conditions: 10 mg/mL total protein; probe 1 μM
T1 construct: intein-His6 (C, cleaved yes); made in house; host or cells: Escherichia coli BL21
Method: HEK 293T cells were grown on 150 mm dishes in sterile-filtered Dulbecco's modified Eagle's medium (Gibco, Thermo Fisher) supplemented with 10% fetal bovine serum (FBS), 1% penicillin/streptomycin (Mediatech, 10 mg/ml each). Cells were then washed with PBS and harvested in 5 mL PBS by scraping. Cells were pelleted by centrifugation at 1000 rpm for 5 min, and the supernatant was removed. The resulting cell pellet was re-suspended in 300-500 μL PBS buffer with 0.1% Triton X-100 (Bio-Rad) and 1×HALT protease inhibitor cocktail without EDTA (Thermo Fisher), then lysed by sonication for two 30 s cycles (cycle 1: 2 s on 2 s off, amp 50; cycle 2: 2 s on 2 s off, amp 55) using a QSonica Q700 sonicator fitted with a microtip. […]
Probes in PBS buffer (1 μM, the stock solution prepared as 10 mM in DMSO) were incubated with different αS fibril concentrations (0, 5, 10, 25 and 50 μM) in the presence of 10 mg/mL HEK cell lysate in Greiner 96 well flat black ½ area plates at 37° C. with shaking at 500 rpm for 15 min in an IKA MS3 control orbital shaker. After 15 min incubation, fluorescence intensity measurements were obtained with a Tecan Spark plate reader (Mannedorf, Switzerland) by excitation with λex/λem=424/570 nm for 7k, λex/λem=463/580 nm for 7l, λex/λem=484/620 nm for 7m, using the following parameters: excitation and emission bandwidth 5 nm, delay time 0 μs, integration time 40 μs. […]

[2] = target: T2, amplified αS fibrils (AFs) from PDD patient brain extracts (Homo sapiens, UniProt P37840); experiment: Fluorescence measurements with PDD patient cases (lysate, AFs, PFFs); format: binding; conditions: lysate or AFs and probe 1 μM
T2 construct: made in house; host or cells: recombinant αS monomer, seeded with sarkosyl-insoluble extract of human frontal cortex (AD or PDD)
Method: All procedures were performed in accordance with local institutional review board guidelines. Written informed consent for autopsy and analysis of tissue sample data was obtained either from patients themselves or their next of kin. Frozen postmortem human frontal cortex brain tissues from three patients diagnosed with Alzheimer's disease (AD) and three patients diagnosed with Parkinson's disease with dementia (PDD) were selected for sequential extraction of αS aggregates based on a high burden of αS pathology determined by immunohistochemical staining. In brief, 5-10 g of frontal cortical gray matter were homogenized in five volumes (W/V) of high-salt (HS) buffer (50 mM Tris-HCl pH 7.4, 750 mM NaCl, 10 mM NaF, 5 mM EDTA) with protease and protein phosphatase inhibitors, incubated on ice for 20 min and centrifuged at 100,000×g for 30 min. The pellets were then re-extracted with HS buffer, followed by sequential extractions with five volumes of 1% Triton X-100-containing HS buffer and 1% Triton X-100-containing HS buffer with 30% sucrose. The pellets were then re-suspended and homogenized in 1% sarkosyl-containing HS buffer, rotated at room temperature for 2 h or at 4° C. overnight and centrifuged at 100,000×g for 30 min. […] These final sarkosyl-insoluble fractions are referred to as “brain extracts.: The amount of αS in the brain extracts was determined by sandwich ELISA using Syn9027, a mono-clonal antibody (Mab) to αS, and the protein concentrations were examined by bicinchoninic acid (BCA) assay. […]
Brain-derived αS aggregates in extract samples from three AD and three PDD cases (FIG. 38A) were used as seeds for templated aggregation of recombinant αS monomer. […] After seven days of incubation, amplification progress was determined by removing an aliquot and diluting tenfold in DPBS to a final αS concentration of 3.5 μM. […] Equal volumes of supernatant and pellet fractions were analyzed on SDS-PAGE gels and Western blot, with amplified aggregates migrating to the pellet fraction (FIG. 38B). […]

Compound | detection of PFFs in cytosolic HEK cell lysate [1] | fluorescence detection of PDD amplified fibrils (AFs) [2]
Cc1c(C)n2c(/C=C/c3ccc(N4CCOCC4)cc3)c(C)c(=O)n2c1=O [Compound 7k, (E)-2,3,6-trimethyl-5-(4-morpholinostyryl)-1H,7H-pyrazolo[1,2-a]pyrazole-1,7-dione] | higher fluorescence turn on | –
Cc1c(C)n2c(/C=C/C=C/c3ccc(N(C)C)cc3)c(C)c(=O)n2c1=O [Compound 7m, 3-((1E,3E)-4-(4-(dimethylamino)phenyl)buta-1,3-dien-1-yl)-2,5,6-trimethyl-1H,7H-pyrazolo[1,2-a]pyrazole-1,7-dione] | – | selective increase in fluorescence for PDD AFs compared to AD AFs
Cc1c(C)n2c(/C=C/c3ccc(N(C)C)cc3)c(C)c(=O)n2c1=O [Compound 7l, (E)-3-(4-(dimethylamino)styryl)-2,5,6-trimethyl-1H,7H-pyrazolo[1,2-a]pyrazole-1,7-dione] | higher fluorescence turn on | higher sensitivity to PDD derived AFs
